Target: activated ERK2 (Homo sapiens (Human), UniProt P28482)
Assay: Activated ERK2 (20 pM) Kinase Assay (AlphaScreen, ERKtide phosphorylation)
Assay type: biochemical
Conditions: 0.02 nM ERK2, 400 nM ERKtide peptide, 35 μM ATP, 30 min preincubation
Method: Activated ERK2 (20 pM) Kinase Assay:
The assay was carried out in 20 mM HEPES [pH 7.5], 5 mM MgCl2, 1 mM DTT, 0.01% Tween-20, 0.05% BSA using 0.02 nM ERK2, 400 nM ERKtide peptide and 35 μM ATP (all concentrations are final in the reaction) in a total volume of 10.25 μL. […] Compound dilution series were prepared in 100% DMSO. ERK2 was preincubated with compounds for 30 minutes at ambient temperature. Reaction was initiated by addition of a substrate cocktail of ERKtide peptide and ATP and was allowed to proceed for 4 hours at ambient temperature. Reaction was terminated by addition of 10 μL of a 2× stop buffer consisting of 100 mM Tris-Cl [pH 7.5], 25 mM EDTA, 0.01% Tween 20, 20 μg/mL of AlphaScreen Protein A Acceptor Beads, 20 μg/mL of Streptavidin Donor Beads (PerkinElmer, Waltham, Mass.), and 1:1000 dilution phospho-EGF Receptor (Thr669) antibody (Cat #8808, Cell Signaling Technology, Danvers, Mass.). Terminated reactions were read, after overnight incubation in the dark, on an EnVision Multilabel Plate Reader (PerkinElmer, Waltham, Mass.), with excitation and emission wavelengths set to 680 nm and 570 nm, respectively. IC50 values were determined using a four-parameter fit.

Sequence of activated ERK2 (P28482 whole entry): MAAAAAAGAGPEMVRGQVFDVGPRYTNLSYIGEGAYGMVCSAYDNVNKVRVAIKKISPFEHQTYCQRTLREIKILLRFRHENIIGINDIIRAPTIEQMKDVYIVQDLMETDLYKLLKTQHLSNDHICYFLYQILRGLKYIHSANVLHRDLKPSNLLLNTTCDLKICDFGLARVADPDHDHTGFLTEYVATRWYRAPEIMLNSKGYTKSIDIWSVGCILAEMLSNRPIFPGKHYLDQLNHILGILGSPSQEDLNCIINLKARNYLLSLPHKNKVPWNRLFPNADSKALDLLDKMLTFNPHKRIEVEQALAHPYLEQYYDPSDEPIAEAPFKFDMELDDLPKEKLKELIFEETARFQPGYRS

IC50 [nM] | Structure (SMILES)
0.223 | Nc1ncc([C@H]2CCC[C@@H](O)C2)nc1-c1ccc(C(=O)N[C@H](CO)c2cccc(Cl)c2)c(F)c1 (single isomer, unassigned) [Example 198]
0.3 | Nc1ncc([C@H]2CCC[C@@H](O)C2)nc1-c1ccc(C(=O)N[C@H](CO)c2cccc(Cl)c2)c(F)c1 (single isomer, unassigned) [Example 199]
0.15 | NC[C@@H](NC(=O)c1ccc(-c2nc(C3CCCC(O)C3)cnc2N)cc1F)c1cccc(Cl)c1 (single isomer, unassigned) [Example 367]
0.0895 | NC[C@@H](NC(=O)c1ccc(-c2nc(C3CCCC(O)C3)cnc2N)cc1F)c1cccc(Cl)c1 (single isomer, unassigned) [Example 368]
0.138 | NC[C@@H](NC(=O)c1ccc(-c2nc(C3CCCC(O)C3)cnc2N)cc1F)c1cccc(Cl)c1 (single isomer, unassigned) [Example 370]
0.04 | NC[C@@H](NC(=O)c1ccc(-c2nc(C3CCCC(O)C3)cnc2N)cc1F)c1cccc(Cl)c1 (single isomer, unassigned) [Example 372]
0.0614 | Nc1ncc(C2CCCC(O)C2)nc1-c1ccc(C(=O)N[C@H](CO)c2cc(F)cc(Br)c2)c(F)c1 (single isomer, unassigned) [Example 384]
0.122 | Nc1ncc(C2CCCC(O)C2)nc1-c1ccc(C(=O)N[C@H](CO)c2cccc(Br)c2)c(F)c1 (single isomer, unassigned) [Example 385]
0.0333 | Nc1ncc(C2CCCC(O)C2)nc1-c1ccc(C(=O)N[C@H](CO)c2cc(F)cc(Br)c2)c(F)c1 (single isomer, unassigned) [Example 386]
0.0308 | Nc1ncc(C2CCCC(O)C2)nc1-c1ccc(C(=O)N[C@H](CO)c2cccc(Br)c2)c(F)c1 (single isomer, unassigned) [Example 389]
0.115 | Nc1ncc(C2CCCC(O)C2)nc1-c1ccc(C(=O)N[C@H](CO)c2cccc(Cl)c2)c(F)c1 (single isomer, unassigned) [Example 391]
0.0752 | Nc1ncc(C2CCCC(O)C2)nc1-c1ccc(C(=O)N[C@H](CO)c2cccc(Cl)c2)c(F)c1 (single isomer, unassigned) [Example 393]
430 | CN1C[C@@H](NC(=O)c2ccc(-c3cc(-c4cnn(C)c4)cnc3N)cc2F)[C@H](c2ccc(F)c(Cl)c2)C1 (stereo in doubt) [Example 207, trans-4-(2-amino-5-(1-methyl-1H-pyrazol-4-yl)pyridin-3-yl)-N-((3S,4R)-4-(3-chloro-4-fluorophenyl)-1-methylpyrrolidin-3-yl)-2-fluorobenzamide]
7440 | CN1C[C@H](NC(=O)c2ccc(-c3cc(-c4cnn(C)c4)cnc3N)cc2F)[C@@H](c2ccc(F)c(Cl)c2)C1 (stereo in doubt) [Example 208, trans-4-(2-amino-5-(1-methyl-1H-pyrazol-4-yl)pyridin-3-yl)-N-((3R,4S)-4-(3-chloro-4-fluorophenyl)-1-methylpyrrolidin-3-yl)-2-fluorobenzamide]
3280 | CN1C[C@@H](NC(=O)c2ccc(-c3cc(-c4cnn(C)c4)cnc3N)cc2F)[C@H](c2ccc(Cl)c(F)c2)C1 (stereo in doubt) [Example 209, trans-4-(2-amino-5-(1-methyl-1H-pyrazol-4-yl)pyridin-3-yl)-N-((3S,4R)-4-(4-chloro-3-fluorophenyl)-1-methylpyrrolidin-3-yl)-2-fluorobenzamide]
10300 | CN1C[C@H](NC(=O)c2ccc(-c3cc(-c4cnn(C)c4)cnc3N)cc2F)[C@@H](c2ccc(Cl)c(F)c2)C1 (stereo in doubt) [Example 210, trans-4-(2-amino-5-(1-methyl-1H-pyrazol-4-yl)pyridin-3-yl)-N-((3R,45)-4-(4-chloro-3-fluorophenyl)-1-methylpyrrolidin-3-yl)-2-fluorobenzamide]

IC50 [nM] | Structure (SMILES)
0.0396 | CO[C@H]1CC[C@H](c2cnc(N)c(-c3ccc(C(=O)N[C@H](CN)c4cccc(Cl)c4)c(F)c3)n2)CC1 [Example 18, N—((S)-2-amino-1-(3-chlorophenyl)ethyl)-4-(3-amino-6-((1r,4S)-4-methoxycyclohexyl)pyrazin-2-yl)-2-fluorobenzamide]
2.56 | C[C@]1(O)CC[C@@H](c2cnc(N)c(-c3ccc(C(=O)N[C@H](CO)c4cccc(Cl)c4)c(F)c3)n2)CC1 [Example 105, 4-(3-amino-6-((1s,4R)-4-hydroxy-4-methylcyclohexy)pyrazin-2-yl)-N-((S)-1-(3-chlorophenyl)-2-hydroxyethyl)-2-fluorobenzamide]
1.28 | C[C@]1(O)CC[C@H](c2cnc(N)c(-c3ccc(C(=O)N[C@H](CO)c4cccc(Cl)c4)c(F)c3)n2)CC1 [Example 106, 4-(3-amino-6-((1r,4S)-4-hydroxy-4-methylcyclohexyl)pyrazin-2-yl)-N-((S)-1-(3-chlorophenyl)-2-hydroxyethyl)-2-fluorobenzamide]
0.631 | Nc1ncc(C2CCOCC2)nc1-c1ccc(C(=O)N[C@H](CO)c2ccccc2)cc1 [Example 135, (S)-4-(3-amino-6-(2,2,6,6-tetradeuterido-tetrahydro-2H-pyran-4-yl)pyrazin-2-yl)-N-(2-hydroxy-1-phenylethyl)benzamide]
0.021 | NC[C@@H](NC(=O)c1ccc(-c2nc(C3CCOCC3)cnc2N)cc1F)c1cccc(Cl)c1 [Example 174, (S)—N-(2-amino-1-(3-chlorophenyl)ethyl)-4-(3-amino-6-(tetrahydro-2H-pyran-4-yl)pyrazin-2-yl)-2-fluorobenzamide]
0.0282 | CNC[C@@H](NC(=O)c1ccc(-c2nc(C3CCOCC3)cnc2N)cc1F)c1cccc(Cl)c1 [Example 176, (S)-4-(3-amino-6-(tetrahydro-2H-pyran-4-yl)pyrazin-2-yl)-N-(1-(3-chlorophenyl)-2-(methylamino)ethyl)-2-fluorobenzamide]
0.0229 | Nc1ncc([C@H]2CC[C@H](O)CC2)nc1-c1ccc(C(=O)N[C@H](CO)c2cc(F)cc(CF)c2)c(F)c1 [Example 177, 4-(3-amino-6-((1r,4S)-4-hydroxycyclohexyl)pyrazin-2-yl)-2-fluoro-N—((S)-1-(3-fluoro-5-(fluoromethyl)phenyl)-2-hydroxyethyl)benzamide]
0.211 | Nc1ncc([C@H]2CC[C@@H](O)CC2)nc1-c1ccc(C(=O)N[C@H](CO)c2cc(F)cc(CF)c2)c(F)c1 [Example 178, 4-(3-amino-6-((1s,4R)-4-hydroxycyclohexyl)pyrazin-2-yl)-2-fluoro-N—((S)-1-(3-fluoro-5-(fluoromethyl)phenyl)-2-hydroxyethyl)benzamide]
0.00612 | NC[C@@H](NC(=O)c1ccc(-c2nc(C3CCOCC3)cnc2N)cc1F)c1cc(F)cc(I)c1 [Example 179, (S)—N-(2-amino-1-(3-fluoro-5-iodophenyl)ethyl)-4-(3-amino-6-(tetrahydro-2H-pyran-4-yl)pyrazin-2-yl)-2-fluorobenzamide]
0.00671 | NC[C@@H](NC(=O)c1ccc(-c2nc(C3CCOCC3)cnc2N)cc1F)c1cc(F)cc(Br)c1 [Example 180, (S)—N-(2-amino-1-(3-bromo-5-fluorophenyl)ethyl)-4-(3-amino-6-(tetrahydro-2H-pyran-4-yl)pyrazin-2-yl)-2-fluorobenzamide]
0.0119 | NC[C@@H](NC(=O)c1ccc(-c2nc(C3CCOCC3)cnc2N)cc1F)c1cc(F)cc(Cl)c1 [Example 181, (S)—N-(2-amino-1-(3-chloro-5-fluorophenyl)ethyl)-4-(3-amino-6-(tetrahydro-2H-pyran-4-yl)pyrazin-2-yl)-2-fluorobenzamide]
0.051 | Nc1ncc([C@H]2CC[C@H](O)[C@@H](F)C2)nc1-c1ccc(C(=O)N[C@H](CO)c2cc(F)cc(Br)c2)c(F)c1 [Example 182, 4-(3-amino-6-((1S,3S,4S)-3-fluoro-4-hydroxycyclohexyl)pyrazin-2-yl)-N—((S)-1-(3-bromo-5-fluorophenyl)-2-hydroxyethyl)-2-fluorobenzamide]
0.0571 | Nc1ncc([C@@H]2CC[C@@H](O)[C@H](F)C2)nc1-c1ccc(C(=O)N[C@H](CO)c2cc(F)cc(Br)c2)c(F)c1 [Example 183, 4-(3-amino-6-((1R,3R,4R)-3-fluoro-4-hydroxycyclohexyl)pyrazin-2-yl)-N—((S)-1-(3-bromo-5-fluorophenyl)-2-hydroxyethyl)-2-fluorobenzamide]
0.0261 | CNC[C@@H](NC(=O)c1ccc(-c2nc([C@H]3CC[C@H](O)[C@@H](F)C3)cnc2N)cc1F)c1cc(F)cc(Br)c1 [Example 184, 4-(3-amino-6-((1S,3S,4S)-3-fluoro-4-hydroxycyclohexyl)pyrazin-2-yl)-N—((S)-1-(3-bromo-5-fluorophenyl)-2-(methylamino)ethyl)-2-fluorobenzamide]
0.924 | Nc1ncc([C@@H]2CC[C@H](O)[C@H](F)C2)nc1-c1ccc(C(=O)N[C@H](CO)c2cc(F)cc(Br)c2)c(F)c1 [Example 185, 4-(3-amino-6-((1R,3R,4S)-3-fluoro-4-hydroxycyclohexyl)pyrazin-2-yl)-N—((S)-1-(3-bromo-5-fluorophenyl)-2-hydroxyethyl)-2-fluorobenzamide]

Structure (SMILES) | IC50 [nM]
Cc1c(-c2cnc(N)c(-c3ccc(C(=O)N[C@H](CO)c4cccc(Cl)c4)c(F)c3)c2)cnn1C [Example 133, (S)-4-(2-amino-5-(1-deuterido-methyl, 5-methyl-1H-pyrazol-4-yl)pyridin-3-yl)-N-(1-(3-chlorophenyl)-2-hydroxyethyl)-2-fluorobenzamide] | 0.0187
